Measurements from patent US5314910A, “Ester inhibitors” (Cortech Inc., priority 1993, dated 1994).

Target: T1, human neutrophil elastase (HNE) (Homo sapiens, UniProt P08246)
T1 sequence (P08246 30-267): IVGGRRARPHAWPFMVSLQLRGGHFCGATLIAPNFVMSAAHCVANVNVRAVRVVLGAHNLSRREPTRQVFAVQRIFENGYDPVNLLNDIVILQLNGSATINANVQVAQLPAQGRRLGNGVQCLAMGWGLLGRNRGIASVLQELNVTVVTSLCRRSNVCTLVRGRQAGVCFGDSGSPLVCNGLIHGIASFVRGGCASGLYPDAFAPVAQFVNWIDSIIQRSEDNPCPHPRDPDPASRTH
Assay: Potency (I50 Determination), HNE inhibition
Format: biochemical
Conditions: substrate N-methoxysuccinyl-ala-ala-pro-val-pNA, pH 7.7, 7 minutes incubation at room temperature, 405 nm
Procedure: Potency (I50 Determination)
A) 0.075 M sodium phosphate, 20% dimethyl sulfoxide (DMSO), pH 7.7=substrate and inhibitor buffer
B) 0.075 M sodium phosphate, no DMSO, pH 7.7=inhibitor buffer
C) 10 mM human neutrophil elastase (HNE) substrate=N-methoxysuccinyl-ala-ala-pro-val-pNA in DMSO
D) 0.01 M sodium acetate, 20% DMSO, pH 5.5=enzyme buffer (dilution)
E) 0.01 M sodium acetate, pH 5.5 enzyme buffer (storage)
F) HNE (1 mg) dissolved in 1 ML of reagent E for storage at -20° C.
Make a 10 mM stock of the inhibitor in DMSO. Dilute an aliquot (10 μL) up to 1.0 mL in reagent A (100 μM). Serially dilute 100 μL of the 100 μM stock to […], 1.0, 0.1, 0.01 μM in reagent A. Apply 100 μL of the diluted material to the wells of a 96-well plate. Dilute an aliquot of reagent F 1:150 in reagent D, apply 50 μL aliquots to the indicated wells and incubate for 7 minutes at room temperature.
The HNE substrate solution is made by taking 100 μL of reagent C into 500 μL of reagent A and 400 μL of reagent B. After the 7 minutes of incubation, the substrate (50 μL) is applied to each well. The HNE catalyzed reaction is then monitored spectrophotometrically at 405 nm using an ELISA plate reader machine (UVMAX, Molecular Devices) which processes the raw data with an on-board kinetics program. The enzyme activity is plotted against different inhibitor concentrations and the […] is determined by using a curve fitting software program. Once the "screening" I50 has been approximated, a more precise I50 value can be obtained by examination of inhibitor concentrations around this value.

Compound	IC50 [nM]
CCC(C(=O)Oc1ccc(SC)cc1)c1ccoc1 (centres unmarked) [Compound 1]	6060
CCC(C(=O)Oc1ccc([S+](C)[O-])cc1)c1ccoc1 (centres unmarked) [Compound 2]	1440
CCC(C(=O)Oc1ccc(S(C)(=O)=O)cc1)c1ccoc1 (centres unmarked) [Compound 3]	470
CCC(C(=O)Oc1ccc(SC)cc1)c1coc2ccccc12 (centres unmarked) [Compound 4]	3800
CCC(C(=O)Oc1ccc([S+](C)[O-])cc1)c1coc2ccccc12 (centres unmarked) [Compound 5]	420
CCC(C(=O)Oc1ccc(S(C)(=O)=O)cc1)c1coc2ccccc12 (centres unmarked) [Compound 6]	150
CCC(C(=O)Oc1ccc(SC)cc1)c1cccs1 (centres unmarked) [Compound 7]	3000
CCC(C(=O)Oc1ccc([S+](C)[O-])cc1)c1cccs1 (centres unmarked) [Compound 8]	430
CCC(C(=O)Oc1ccc(S(C)(=O)=O)cc1)c1cccs1 (centres unmarked) [Compound 9]	290
CCC(C(=O)Oc1ccc([N+](=O)[O-])cc1)c1cccs1 (centres unmarked) [Compound 10]	270
CCC(C(=O)Oc1ccc(SC)cc1)c1ccsc1 (centres unmarked) [Compound 11, 4-Methylmercaptophenyl 2-(3-thiophene)butyrate]	1500
CCC(C(=O)Oc1ccc([S+](C)[O-])cc1)c1ccsc1 (centres unmarked) [Compound 12, 4-Methylsulfinylphenyl 2-(3-thiophene)butyrate]	130
CCC(C(=O)Oc1ccc(S(C)(=O)=O)cc1)c1ccsc1 (centres unmarked) [Compound 13, 4-Methylsulfonylphenyl 1-(3-thiophene)butyrate]	50
CCC(C(=O)Oc1ccc([N+](=O)[O-])cc1)c1ccsc1 (centres unmarked) [Compound 14]	120
CCC(C(=O)Oc1ccc(SC)cc1)c1cccn1C (centres unmarked) [Compound 15, 4-Methylmercaptophenyl 2-(1-Methyl-2-pyrrole)butyrate]	6200
CCC(C(=O)Oc1ccc([S+](C)[O-])cc1)c1cccn1C (centres unmarked) [Compound 16, 4-Methylsulfinylphenyl 2-(1-Methyl-2-pyrrole)butyrate]	460
CCC(C(=O)Oc1ccc(S(C)(=O)=O)cc1)c1cccn1C (centres unmarked) [Compound 17, 4-Methylsulfonylphenyl 2-(1-Methyl-2-pyrrole)butyrate]	60
CCC(C(=O)Oc1ccc([N+](=O)[O-])cc1)c1cccn1C (centres unmarked) [Compound 18]	200
CCC(C(=O)Oc1ccc(SCC(C)(C)C(=O)O)cc1)c1cccn1C (centres unmarked) [Compound 19, 4-(2'-Carboxy-2'-methylpropylmercapto)phenyl 2-(1-Methyl-2-pyrrole)butyrate]	200
CCC(C(=O)Oc1ccc([S+]([O-])CC(C)(C)C(=O)O)cc1)c1cccn1C (centres unmarked) [Compound 20, 4-(2,-Carboxy-2'-methylpropylsulfinyl)phenyl 2-(1-Methyl-2-pyrrole)butyrate]	590
CCC(C(=O)Oc1ccc(SC)cc1)c1c[nH]c2ccccc12 (centres unmarked) [Compound 21]	33000
CCC(C(=O)Oc1ccc([S+](C)[O-])cc1)c1c[nH]c2ccccc12 (centres unmarked) [Compound 22]	1900

System: ischemia reperfusion injuries (myocardial infarct size)
Assay: Ischemia reperfusion injury in dogs, myocardial infarct size
Format: in vivo, dog
Conditions: not given
Procedure: Experiments have been conducted on dogs to study the effect of the compounds of the invention in the treatment of ischemia reperfusion injuries.
The protocol used in the experiment referred to in the preceding paragraph involved the following:
Male mongrel dogs (13 to 17 kg) were anesthetized with sodium pentobarbital, 30 mg/kg i.v., intubated and ventilated with room air via a Harvard respirator. Lead II of the electrocardiogram and hemodynamics were monitored continuously throughout the course of the experiment. A catheter was inserted into the left carotid artery and advanced into the left ventricle for the continuous recording of left ventricular pressure. […] After 24 hr of reperfusion, the animal was reanesthetized, the thoracotomy incision opened, the heart fibrillated electrically and removed rapidly for postmortem quantification of infarct size.
Animals were randomized to receive either the test compound or a placebo (diluent) administered as an intracoronary infusion via a catheter inserted into the left circumflex coronary artery just distal to the point at which the vessel is occluded. The dose was determined on the basis of known pharmacokinetic data and the infusion was maintained throughout the 90 period of regional ischemia as well as during the 24 hour reperfusion period. […]

Compound	reduction in infarct size compared to the controls (in words)
CCC(C(=O)Oc1ccc([S+](C)[O-])cc1)c1cccn1C (centres unmarked) [Compound 16, 4-Methylsulfinylphenyl 2-(1-Methyl-2-pyrrole)butyrate]	significant reduction in infarct size
